Test results as given in ChEMBL document CHEMBL1158487, “Small molecule chloropyramine hydrochloride (C4) targets the binding site of focal adhesion kinase and vascular endothelial growth factor receptor 3 and suppresses breast cancer growth in vivo” (J Med Chem, 2009).

System: BT-474
Test: Antitumor activity against human BT474 cells xenografted in nude-foxn1nu mouse assessed as reduction in tumor growth at 3 mg/kg after 14 days relative to control
Assay type: functional
Parameters: scale not given: the % may be the effect or the level left

## COc1cccc2c1C(=O)c1c(O)c3c(c(O)c1C2=O)C[C@@](O)(C(=O)CO)C[C@@H]3O[C@H]1C[C@H](N)[C@H](O)[C@H](C)O1 [DOXORUBICIN]
  Activity: 60%
